Like-named read-outs stand apart in the source and are kept apart here.
Legend:
[1] = Storage test of aldehyde mixture containing 4-hydroxy-TEMPO with additive (Example 4); type: physicochemical; conditions: for Heptane / Z11-16:OH / 16:Acid / OH tempo / Z9-16:Ald / 15-1:Ald / 16:Ald / Z11-16:Ald: after 55° C. 14 days without cap; for Heptane: before test 0.04, without additive 0.04; for Z11-16:OH: before test 0.27, without additive 0.06; for 16:Acid: before test 1.05, without additive 6.14; for OH tempo: before test 1.19, without additive 1.11; for Z9-16:Ald: before test 5.09, without additive 3.71; for 15-1:Ald: before test 7.27, without additive 5.83; for 16:Ald: before test 8.41, without additive 6.64; for Z11-16:Ald: before test 75.31, without additive 57.21, in % (unit assumed)
Procedure: To a mixture of aldehydes containing; 4-hydroxy-TEMPO (4-hydroxy-2,2,6,6-tetramethylpiperidin-1-oxyl), (Z)-10-pentenenal, (Z)-9-hexadecenal, (Z)-11-hexadecenal, hexadecanal, (Z)-11-hexadecen-1-ol and (Z)-11-hexadecenoic acid in the composition listed in table 4 below was added up to 1% of an additive in table below. The mixture was thoroughly mixed and heated without cap in an oven at 55° C. for 14 days.

[2] = Storage test of aldehyde mixture containing 4-hydroxy-TEMPO and 10 ppm Copper with additive (Example 3); conditions: 10 ppm Copper; for Z11-16:OH / Z10-15:Ald / 16:Acid / Z9-16:Ald / 16:Ald / Z11-16:Ald: after 55 C 14 days without cap; for Z11-16:OH: before test 2.16, blank 1.44; for Z10-15:Ald: before test 2.61, blank 2.72; for 16:Acid: before test 3.01, blank 7.94; for Z9-16:Ald: before test 5.33, blank 3.91; for 16:Ald: before test 8.16, blank 6.48; for Z11-16:Ald: before test 74.98, blank 58.18; for suppressing acid formation and degradation of the aldehydes: 55 C 14 days
Procedure: To a mixture of aldehydes containing; 4-hydroxy-TEMPO (4-hydroxy-2,2,6,6-tetramethylpiperidin-1-oxyl), (Z)-10-pentenenal, (Z)-9-hexadecenal, (Z)-11-hexadecenal, hexadecanal, (Z)-11-hexadecen-1-ol (Z)-11-hexadecenoic acid and 10 ppm Copper in the composition listed in table 3 below was added up to 1% of an additive in table below. The mixture was thoroughly mixed and heated without cap in an oven at 55 C for 14 days.

[3] = Accelerated storage test of aldehyde mixture with additive, 40 ppm Cu (Example 1); type: physicochemical
Procedure: To a mixture of aldehydes containing; (Z)-9-hexadecenal, (Z)-11-hexadecenal, hexadecanal, (Z)-11-hexadecen-1-ol, (Z)-11-hexadecenoic acid and 40 ppm Cu was added an additive as indicated in table 1 below. The mixture was thoroughly mixed and heated without cap in an oven at 55° C. for 14 days as an accelerated storage test.

[4] = Accelerated storage test of aldehyde mixture with additive, 10 ppm Cu (Example 2)
Procedure: The term “accelerated storage test” as used herein refers to a well known protocol for investigating the stability of a particular composition. The protocol is described in for example the memorandum dated 16 Nov. 2012 from The United States Environmental Protection Agency Washington, D.C. 20460 with the subject title “Accelerated Storage Stability and Corrosion Characteristics Study Protocol”. The protocol evaluates product stability at 54° C.±2° C. for 14 days.

Compound	suppressing acid formation and/or degradation of the aldehydes [1]	Heptane [1]	Z11-16:OH [1]	16:Acid [1]	OH tempo [1]	Z9-16:Ald [1]	15-1:Ald [1]	16:Ald [1]	Z11-16:Ald [1]	Z11-16:OH [2]	Z10-15:Ald [2]	16:Acid [2]	Z9-16:Ald [2]	16:Ald [2]	Z11-16:Ald [2]	suppressing acid formation and/or degradation of the aldehydes ([1]; 55° C. 14 days)	suppressing acid formation and degradation of the aldehydes [2]	further results
SC1=NCCS1 [2-thiazoline-2-thiol]	particularly efficient at suppressing acid formation and/or degradation of the aldehydes	0.04	0.00	1.69	0.83	4.64	6.26	8.08	68.79	2.18	2.48	2.74	5.06	8.21	75.24			
Nc1nnc(S)s1 [5-Amino-1,3,4-Thiadiazole-2-thiol]	particularly efficient at suppressing acid formation and/or degradation of the aldehydes	0.04	0.12	1.87	1.12	4.46	6.82	7.78	69.41	2.11	2.95	3.03	4.92	7.81	72.73			
Cc1nnc(S)s1 [5-Methyl-1,3,4-thiadiazole-2-thiol]	particularly efficient at suppressing acid formation and/or degradation of the aldehydes	0.04	0.29	1.38	1.14	4.38	6.71	8.04	71.38	2.12	2.74	3.02	4.69	7.81	71.97			
CC1(C)CC(O)CC(C)(C)N1[O] [Additive 4-OH-TEMPO, 4-hydroxy-2,2,6,6-tetramethylpiperidin-1-oxyl]		0.04	0.19	3.00	1.53	4.52	6.54	7.60	67.41	1.88	2.69	4.18	4.72	7.51	68.82			
[Na+].[O-][n+]1ccccc1[S-] [Sodium pyrithione]		0.04	0.24	1.58	1.05	5.08	6.71	8.29	74.65	2.14	2.87	3.39	5.18	8.07	74.71	particularly efficient at suppressing acid formation and/or degradation of the aldehydes	particularly efficient at suppressing acid formation and degradation of the aldehydes	suppressing degradation ([3]; 55° C. 14 days): particularly efficient at suppressing degradation; Z9-16:Ald ([3]; after 55° C. 14 days without cap, before test 4.3, blank 3.066023): 3.083; C16:Acid ([3]; after 55° C. 14 days without cap, before test 6.7, blank 18.84135): 8.924; 16:Ald ([3]; after 55° C. 14 days without cap, before test 7.5, blank 6.659339): 6.675; Z11-16Ald ([3]; after 55° C. 14 days without cap, before test 69.4, blank 54.83784, in % (unit assumed)): 57.02; suppressing degradation ([4]; 55° C. 14 days): highly efficient at suppressing degradation; C16:Acid ([4]; after 55° C. 14 days without cap, before test 1.05, blank 17.72): 3.34; Z9-16:Ald ([4]; after 55° C. 14 days without cap, before test 5.09, blank 3.05): 4.20; 16:Ald ([4]; after 55° C. 14 days without cap, before test 8.41, blank 6.60): 8.73; Z11-16Ald ([4]; after 55° C. 14 days without cap, before test 75.31, blank 54.31): 76.47
Zinc Pyrithione		0.04	0.13	2.29	1.17	4.57	6.78	7.72	65.87	1.53	3.04	5.28	4.44	7.01	64.80	particularly efficient at suppressing acid formation and/or degradation of the aldehydes	particularly efficient at suppressing acid formation and degradation of the aldehydes	

Reference: patent publication US20260256136A1, “STABILIZATION OF ALDEHYDES AND/OR AN ALCOHOLS” (priority 2022, published 2026)
